{"source": "ChEMBL document CHEMBL2073983", "about": "“Characterization of the mouse bile salt export pump overexpressed in the baculovirus system” (Hepatology, 2001)", "molecules": {"B1": {"name": "Bile salt export pump (Mus musculus) (protein)", "chain": "MSDSVILRSVKKFGEENHAFESDGFHNNDKKSRLQDKKKGEGARVGFFELFRFSSSKDNWLMFMGSVCALLHGMAQPGMIIVFGILTDIFVEYDIERQELSIPEKVCMNNTIVWINSSFNQNMTNGTSCGLVDINSEVIKFSGIYAGVGVAVLILGYFQIRLWVITGARQIRKMRKFYFRRIMRMEIGWFDCTSVGELNSRFSDDINKIDEAIADQMALFLQRLSTALSGLLLGFYRGWKLTLVILAVSPLIGIGAAVIGLSVAKFTELELKAYAKAGSIADEVLSSIRTVAAFGGENKEVERYEKNLMFAQRWGIWKGMVMGFFTGYMWCLIFFCYALAFWYGSRLVLDEGEYTPGTLIQIFLCVIIAAMNIGNASSCLEIFSTGCSAASSIFQTIDRQPVMDCMSGDGYKLDRIKGEIEFHNVTFHYPSRPEVKILNNLSMVIKPGETTAFVGSSGAGKSTALQLIQRFYDPCEGMVTLDGHDIRSLNIRWLRDQIGIVEQEPVLFSTTIAENIRLGREEATMEDIVQAAKDANAYNFIMALPQQFDTLVGEGGGQMSGGQKQRVAIARALIRKPKILLLDMATSALDNESEAKVQGALNKIQHGHTIISVAHRLSTVRSADVIIGFEHGTAVERGTHEELLERKGVYFMLVTLQSQEDNTHKETGIKGKDTTEGDTPERTFSRGSYQDSLRASIRQRSKSQLSHLSHEPPLAIGDHKSSYEDRKDNDVLVEEVEPAPVRRILKYNISEWPYILVGALCAAINGAVTPIYSLLFSQILKTFSLVDKEQQRSEIYSMCLFFVILGCVSLFTQFLQGYNFAKSGELLTKRLRKFGFKAMLRQDIGWFDDLKNNPGVLTTRLATDASQVQGATGSQVGMMVNSFTNIFVAVLIAFLFNWKLSLVISVFFPFLALSGAVQTKMLTGFASQDKEILEKAGQITNEALSNIRTVAGIGVEGRFIKAFEVELEKSYKTAIRKANVYGLCYAFSQGISFLANSAAYRYGGYLIVYEDLNFSYVFRVVSSIAMSATAVGRTFSYTPSYAKAKISAARFFQLLDRKPPIDVYSGAGEKWDNFQGKIDFIDCKFTYPSRPDIQVLNGLSVSVDPGQTLAFVGSSGCGKSTSIQLLERFYDPDQGTVMIDGHDSKKVNVQFLRSNIGIVSQEPVLFDCSIMDNIKYGDNTKEISVERAIAAAKQAQLHDFVMSLPEKYETNVGIQGSQLSRGEKQRIAIARAIVRDPKILLLDEATSALDTESEKTVQLALDKAREGRTCIVIAHRLSTIQNSDIIAVMSQGVVIEKGTHKKLMDQKGAYYKLVITGAPIS"}}, "format_in_all_cases": "functional, cell membranes, Membrane vesicle", "key": {"[1]": {"biological_target": "T1, Bile salt export pump (Bsep) (Mus musculus, UniProt Q9QY30)", "T1 sequence (Q9QY30 whole entry)": "B1 chain", "assay": "TP_TRANSPORTER: inhibition of Taurochenodeoxycholate-stimulated ATPase activity (Glibenclamide: 60 uM) in membrane vesicles from Bsep-expressing Sf9 cells", "parameters": "scale not given: the % may be the effect or the level left", "conditions": "probe Taurochenodeoxycholate, read-out: Activity"}, "[2]": {"biological_target": "T1, Bile salt export pump (Bsep)", "assay": "TP_TRANSPORTER: inhibition of Taurochenodeoxycholate-stimulated ATPase activity (Rifamycin SV: 100 uM) in membrane vesicles from Bsep-expressing Sf9 cells", "parameters": "scale not given: the % may be the effect or the level left", "conditions": "probe Taurochenodeoxycholate, read-out: Activity"}, "[3]": {"substrate": "C[C@H](CCC(=O)NCC(=O)O)[C@H]1CC[C@H]2[C@@H]3[C@H](O)C[C@@H]4C[C@H](O)CC[C@]4(C)[C@H]3C[C@H](O)[C@]12C", "assay": "TP_TRANSPORTER: uptake in membrane vesicles from Bsep-expressing Sf9 cells"}, "[4]": {"substrate": "C[C@H](CCC(=O)NCCS(=O)(=O)O)[C@H]1CC[C@H]2[C@@H]3[C@H](O)C[C@@H]4C[C@H](O)CC[C@]4(C)[C@H]3CC[C@]12C", "assay": "TP_TRANSPORTER: uptake in membrane vesicles isolated from Bsep-expressing Sf9 cells"}}, "data": [{"molecule": "COc1ccc(Cl)cc1C(=O)NCCc1ccc(S(=O)(=O)NC(=O)NC2CCCCC2)cc1", "note": "[GLYBURIDE]", "values": [{"measurement": "activity at 60 µM", "setting": "[1]", "value": 47.2, "unit": "%"}]}, {"molecule": "CO[C@H]1/C=C/O[C@@]2(C)Oc3c(C)c(O)c4c(O)c(cc(O)c4c3C2=O)NC(=O)/C(C)=C\\C=C\\[C@H](C)[C@H](O)[C@@H](C)[C@@H](O)[C@@H](C)[C@H](OC(C)=O)[C@@H]1C", "note": "[RIFAMYCIN]", "values": [{"measurement": "activity at 100 µM", "setting": "[2]", "value": 29.8, "unit": "%"}]}, {"molecule": "B1", "values": [{"measurement": "Km", "setting": "[3]", "value": 19.5, "unit": "µM"}, {"measurement": "Km", "setting": "[4]", "value": 5.7, "unit": "µM"}]}]}
